In article PMC5218480 (PLoS ONE, 2017):

System: MV-4-11 cells
Test: Gene expression microarray analysis (Affymetrix PrimeView) and GSEA
Type: cell-based, human
Design: RFU PODN (11730768_x_at) / Fold change /veh PODN (11730768_x_at) / RFU LINC00158 (11744669_a_at) / Fold change /veh LINC00158 (11744669_a_at) / RFU DUSP10 (11751237_a_at) / Fold change /veh DUSP10 (11751237_a_at) / RFU ID3 (11757404_x_at) / Fold change /veh ID3 (11757404_x_at) / RFU PLEKHG5 (11737974_s_at) / Fold change /veh PLEKHG5 (11737974_s_at) / RFU LRRC4B (11730491_at) / Fold change /veh LRRC4B (11730491_at) / RFU GIMAP4 (11747438_a_at) / Fold change /veh GIMAP4 (11747438_a_at) / RFU KRT8 (11758183_x_at) / Fold change /veh KRT8 (11758183_x_at) / RFU CNN1 (11734310_a_at) / Fold change /veh CNN1 (11734310_a_at) / RFU VPS37D (11726825_at) / Fold change /veh VPS37D (11726825_at) / RFU C10orf10 (11716522_x_at) / Fold change /veh C10orf10 (11716522_x_at) / RFU KIR2DL2 /// KIR2DL4 /// KIR2DL5A /// KIR2DL5B /// KIR2DS1 /// KIR2DS2 /// KIR2DS3 /// KIR2DS4 /// KIR3DL3 /// KIR3DL3 /// KIR3DS1 (11738374_at) / Fold change /veh KIR2DL2 /// KIR2DL4 /// KIR2DL5A /// KIR2DL5B /// KIR2DS1 /// KIR2DS2 /// KIR2DS3 /// KIR2DS4 /// KIR3DL3 /// KIR3DL3 /// KIR3DS1 (11738374_at) / RFU C1QL1 (11718748_at) / Fold change /veh C1QL1 (11718748_at) / RFU TMPRSS4 (11747572_a_at) / Fold change /veh TMPRSS4 (11747572_a_at) / RFU HAMP (11756126_x_at) / Fold change /veh HAMP (11756126_x_at) / RFU RNFT2 (11725882_a_at) / Fold change /veh RNFT2 (11725882_a_at) / RFU NR4A2 (11747474_a_at) / Fold change /veh NR4A2 (11747474_a_at) / RFU ABCC12 (11746883_a_at) / Fold change /veh ABCC12 (11746883_a_at) / RFU TMEM136 (11760407_x_at) / Fold change /veh TMEM136 (11760407_x_at) / RFU CLDN22 /// WWC2 (11732394_at) / Fold change /veh CLDN22 /// WWC2 (11732394_at) / RFU HLA-DPB1 (11760878_x_at) / Fold change /veh HLA-DPB1 (11760878_x_at) / RFU SPINT1 (11716480_a_at) / Fold change /veh SPINT1 (11716480_a_at) / RFU GAP43 (11754022_s_at) / Fold change /veh GAP43 (11754022_s_at) / RFU A4GNT (11735810_at) / Fold change /veh A4GNT (11735810_at) / RFU PRB3 (11715151_x_at) / Fold change /veh PRB3 (11715151_x_at) / RFU TUBB4B (11761932_at) / Fold change /veh TUBB4B (11761932_at) / RFU CAPN14 (11732068_a_at) / Fold change /veh CAPN14 (11732068_a_at) / RFU TMCC2 (11721928_a_at) / Fold change /veh TMCC2 (11721928_a_at) / RFU IRGQ (11745062_a_at) / Fold change /veh IRGQ (11745062_a_at) / RFU FAM174B (11720279_a_at) / Fold change /veh FAM174B (11720279_a_at) / RFU TMPRSS4 (11748680_a_at) / Fold change /veh TMPRSS4 (11748680_a_at) / RFU FAM212B (11763350_a_at) / Fold change /veh FAM212B (11763350_a_at) / RFU PLEKHG5 (11743358_a_at) / Fold change /veh PLEKHG5 (11743358_a_at) / RFU ZSCAN30 (11745921_a_at) / Fold change /veh ZSCAN30 (11745921_a_at) / RFU CMKLR1 (11741424_a_at) / Fold change /veh CMKLR1 (11741424_a_at) / RFU LOC101060620 /// MAPK8IP1 (11723275_at) / Fold change /veh LOC101060620 /// MAPK8IP1 (11723275_at) / RFU SPTSSB (11747773_x_at) / Fold change /veh SPTSSB (11747773_x_at) / RFU PRSS12 (11739890_at) / Fold change /veh PRSS12 (11739890_at) / RFU BIN1 (11741810_x_at) / Fold change /veh BIN1 (11741810_x_at) / RFU WNT11 (11732464_a_at) / Fold change /veh WNT11 (11732464_a_at) / RFU C10orf10 (11716521_a_at) / Fold change /veh C10orf10 (11716521_a_at) / RFU C5orf56 (11738089_at) / Fold change /veh C5orf56 (11738089_at) / RFU CYB561 (11721691_x_at) / Fold change /veh CYB561 (11721691_x_at) / RFU ANKRD19P (11752326_a_at) / Fold change /veh ANKRD19P (11752326_a_at) / RFU OR2T12 /// OR2T33 /// OR2T8 (11738714_s_at) / Fold change /veh OR2T12 /// OR2T33 /// OR2T8 (11738714_s_at) / RFU VCAN (11748164_a_at) / Fold change /veh VCAN (11748164_a_at) / RFU JSRP1 (11732532_at) / Fold change /veh JSRP1 (11732532_at) / RFU KRTAP10-11 (11738290_x_at) / Fold change /veh KRTAP10-11 (11738290_x_at) / RFU MYO3A (11730013_a_at) / Fold change /veh MYO3A (11730013_a_at) / RFU EBF3 (11725865_a_at) / Fold change /veh EBF3 (11725865_a_at) / RFU CAMK2N1 (11719241_x_at) / Fold change /veh CAMK2N1 (11719241_x_at) / RFU C5orf56 (11738088_a_at) / Fold change /veh C5orf56 (11738088_a_at) / RFU OLFML3 (11715873_a_at) / Fold change /veh OLFML3 (11715873_a_at) / RFU LOC100653217 /// NTM (11731650_a_at) / Fold change /veh LOC100653217 /// NTM (11731650_a_at) / RFU MAPK11 (11762145_a_at) / Fold change /veh MAPK11 (11762145_a_at) / RFU FIZ1 (11724087_x_at) / Fold change /veh FIZ1 (11724087_x_at) / RFU OASL (11726364_x_at) / Fold change /veh OASL (11726364_x_at) / RFU SOX15 (11748057_x_at) / Fold change /veh SOX15 (11748057_x_at) / RFU CD79A (11719716_a_at) / Fold change /veh CD79A (11719716_a_at) / RFU HIST1H1D (11736915_at) / Fold change /veh HIST1H1D (11736915_at) / RFU CASKIN2 (11723855_a_at) / Fold change /veh CASKIN2 (11723855_a_at) / RFU LOC730098 (11760151_x_at) / Fold change /veh LOC730098 (11760151_x_at) / RFU OR4N2 (11742367_at) / Fold change /veh OR4N2 (11742367_at) / RFU PRRT2 (11749266_a_at) / Fold change /veh PRRT2 (11749266_a_at) / RFU SNX32 (11753110_a_at) / Fold change /veh SNX32 (11753110_a_at) / RFU CDHR5 (11726645_a_at) / Fold change /veh CDHR5 (11726645_a_at) / RFU RCAN1 (11760418_a_at) / Fold change /veh RCAN1 (11760418_a_at) / RFU FAM167A (11723789_a_at) / Fold change /veh FAM167A (11723789_a_at) / RFU FAM26E (11764081_at) / Fold change /veh FAM26E (11764081_at) / RFU ISYNA1 (11749810_s_at) / Fold change /veh ISYNA1 (11749810_s_at) / RFU ACY1 (11761880_at) / Fold change /veh ACY1 (11761880_at) / RFU 11764098_at / Fold change /veh 11764098_at / RFU SAMD14 (11745864_x_at) / Fold change /veh SAMD14 (11745864_x_at) / RFU NPB (11741838_a_at) / Fold change /veh NPB (11741838_a_at) / RFU TMPRSS6 (11731388_a_at) / Fold change /veh TMPRSS6 (11731388_a_at) / RFU KRTAP10-2 (11738614_at) / Fold change /veh KRTAP10-2 (11738614_at) / RFU ARHGAP8 /// PRR5-ARHGAP8 (11727945_x_at) / Fold change /veh ARHGAP8 /// PRR5-ARHGAP8 (11727945_x_at) / RFU KRTAP5-7 /// NADSYN1 (11734609_at) / Fold change /veh KRTAP5-7 /// NADSYN1 (11734609_at) / RFU RASL12 (11751679_a_at) / Fold change /veh RASL12 (11751679_a_at) / RFU CDKN2B (11736163_a_at) / Fold change /veh CDKN2B (11736163_a_at) / RFU PRF1 (11729649_at) / Fold change /veh PRF1 (11729649_at) / RFU, ZNF638 /// ZNF638-IT1 / Fold change vs veh, ZNF638 /// ZNF638-IT1 / RFU, PANK3 / Fold change vs veh, PANK3 / RFU, SH3YL1 / Fold change vs veh, SH3YL1 / RFU, ZEB2 / Fold change vs veh, ZEB2 / RFU, NRIP1 / Fold change vs veh, NRIP1 / RFU, PTTG1IP / Fold change vs veh, PTTG1IP / RFU, CAPN2 / Fold change vs veh, CAPN2 / RFU, MED14 / Fold change vs veh, MED14 / RFU, SNORA58 / Fold change vs veh, SNORA58 / RFU, C1orf63 / Fold change vs veh, C1orf63 / RFU, LRRFIP1 / Fold change vs veh, LRRFIP1 / RFU, NDUFAF7 / Fold change vs veh, NDUFAF7 / RFU, SLC12A2 / Fold change vs veh, SLC12A2 / RFU, IBTK / Fold change vs veh, IBTK / RFU, ESF1 / Fold change vs veh, ESF1 / Fold change vs veh, TMEM50B / RFU, TAOK1 / Fold change vs veh, TAOK1 / RFU, ACBD3 / Fold change vs veh, ACBD3 / RFU, TMA16 / Fold change vs veh, TMA16 / RFU, RWDD3 / Fold change vs veh, RWDD3 / RFU, BCAT1 / Fold change vs veh, BCAT1 / RFU, EDEM3 / Fold change vs veh, EDEM3 / RFU, TMEM33 / Fold change vs veh, TMEM33 / RFU, WDR75 / Fold change vs veh, WDR75 / RFU, AHCTF1 / Fold change vs veh, AHCTF1 / RFU, TFRC / Fold change vs veh, TFRC / RFU, ZDHHC17 / Fold change vs veh, ZDHHC17 / RFU, NOM1 / Fold change vs veh, NOM1 / RFU, ARL8B / Fold change vs veh, ARL8B / RFU, ZBTB11 / Fold change vs veh, ZBTB11 / RFU, TAMM41 / Fold change vs veh, TAMM41 / RFU, KIAA1704 /// LOC100996395 / Fold change vs veh, KIAA1704 /// LOC100996395 / RFU, ING1 / Fold change vs veh, ING1 / RFU, TRMT61B / Fold change vs veh, TRMT61B / RFU, FUBP3 / Fold change vs veh, FUBP3 / RFU, TP53 / Fold change vs veh, TP53 / RFU, TNKS2 / Fold change vs veh, TNKS2 / RFU, ZFP14 / Fold change vs veh, ZFP14 / RFU, ACTR2 / Fold change vs veh, ACTR2 / RFU, PPP3R1 / Fold change vs veh, PPP3R1 / RFU, PIK3R1 / Fold change vs veh, PIK3R1 / RFU, HNRNPA1 / Fold change vs veh, HNRNPA1 / RFU, RNF170 / Fold change vs veh, RNF170 / RFU, ZNF28 / Fold change vs veh, ZNF28 / RFU, RNGTT / Fold change vs veh, RNGTT / RFU, OGT / Fold change vs veh, OGT / RFU, BRD1 / Fold change vs veh, BRD1 / RFU, MARS / Fold change vs veh, MARS / RFU, ZNF655 / Fold change vs veh, ZNF655 / RFU, FAHD1 / Fold change vs veh, FAHD1 / RFU, BDP1 / Fold change vs veh, BDP1 / RFU, LRRCC1 / Fold change vs veh, LRRCC1 / RFU, ARID1A / Fold change vs veh, ARID1A / RFU, ZNF146 / Fold change vs veh, ZNF146 / RFU, ZNF330 / Fold change vs veh, ZNF330 / RFU, GPN3 / Fold change vs veh, GPN3 / RFU, C9orf123 / Fold change vs veh, C9orf123 / RFU, N4BP2L2 / Fold change vs veh, N4BP2L2 / RFU, ARFIP1 / Fold change vs veh, ARFIP1 / RFU, FAM179B / Fold change vs veh, FAM179B / RFU, BCL10 / Fold change vs veh, BCL10 / RFU, UHRF1BP1L / Fold change vs veh, UHRF1BP1L / RFU, BET1 / Fold change vs veh, BET1 / RFU, CNOT2 / Fold change vs veh, CNOT2 / RFU, ZNF268 / Fold change vs veh, ZNF268 / Fold change vs veh, ZNF507 / RFU, DGCR2 / Fold change vs veh, DGCR2 / RFU, WDSUB1 / Fold change vs veh, WDSUB1 / Fold change vs veh, HSP90B1 /// MIR3652 / RFU, ADSS / Fold change vs veh, ADSS / RFU, GK / Fold change vs veh, GK / RFU, ZNF148 / Fold change vs veh, ZNF148 / RFU, TAF9 / Fold change vs veh, TAF9 / RFU, SLC1A5 / Fold change vs veh, SLC1A5 / RFU, SLMO2 / Fold change vs veh, SLMO2 / RFU, ABCC4 / Fold change vs veh, ABCC4 / RFU, LOC101060439 /// RAP1B / Fold change vs veh, LOC101060439 /// RAP1B / RFU, RFX7 / Fold change vs veh, RFX7 / RFU, GTPBP10 / Fold change vs veh, GTPBP10 / RFU, CNEP1R1 / Fold change vs veh, CNEP1R1 / RFU, BIVM-ERCC5 /// ERCC5 / Fold change vs veh, BIVM-ERCC5 /// ERCC5 / RFU, ILF3 / Fold change vs veh, ILF3 / RFU 11762660_at / Fold change /veh 11762660_at / RFU VCAN (11757783_s_at) / Fold change /veh VCAN (11757783_s_at) / RFU DDX43 (11728927_at) / Fold change /veh DDX43 (11728927_at) / RFU KRT8 (11758188_x_at) / Fold change /veh KRT8 (11758188_x_at) / RFU NKD1 (11759106_at) / Fold change /veh NKD1 (11759106_at) / RFU SRD5A1 (11742802_a_at) / Fold change /veh SRD5A1 (11742802_a_at) / RFU TPSAB1 /// TPSB2 (11721975_s_at) / Fold change /veh TPSAB1 /// TPSB2 (11721975_s_at) / RFU GSTM3 (11746129_a_at) / Fold change /veh GSTM3 (11746129_a_at) / RFU IL23R (11737362_x_at) / Fold change /veh IL23R (11737362_x_at) / RFU TMEM51 (11727254_a_at) / Fold change /veh TMEM51 (11727254_a_at) / RFU PIWIL2 (11732686_x_at) / Fold change /veh PIWIL2 (11732686_x_at) / RFU ORM1 (11744905_x_at) / Fold change /veh ORM1 (11744905_x_at) / RFU CCDC152 (11743942_at) / Fold change /veh CCDC152 (11743942_at) / RFU ECM1 (11717891_a_at) / Fold change /veh ECM1 (11717891_a_at) / RFU IL23R (11748794_a_at) / Fold change /veh IL23R (11748794_a_at) / RFU TNFAIP8L3 (11732012_x_at) / Fold change /veh TNFAIP8L3 (11732012_x_at) / RFU MBOAT4 (11741988_at) / Fold change /veh MBOAT4 (11741988_at) / RFU 11764193_at / Fold change /veh 11764193_at / RFU TMEM53 (11763286_at) / Fold change /veh TMEM53 (11763286_at) / RFU MAGEB2 (11727129_at) / Fold change /veh MAGEB2 (11727129_at) / RFU TMEM200A (11744735_a_at) / Fold change /veh TMEM200A (11744735_a_at) / RFU CCDC152 (11751479_a_at) / Fold change /veh CCDC152 (11751479_a_at) / RFU FAM211A (11726209_a_at) / Fold change /veh FAM211A (11726209_a_at) / RFU RGS16 (11746705_a_at) / Fold change /veh RGS16 (11746705_a_at) / RFU VCAN (11755009_s_at) / Fold change /veh VCAN (11755009_s_at) / RFU RHOB (11743442_s_at) / Fold change /veh RHOB (11743442_s_at) / RFU RGS16 (11720943_a_at) / Fold change /veh RGS16 (11720943_a_at) / RFU RGS16 (11720944_at) / Fold change /veh RGS16 (11720944_at) / RFU, VPS4B / Fold change vs veh, VPS4B / RFU, CREB1 / Fold change vs veh, CREB1 / RFU, DNAJC13 / Fold change vs veh, DNAJC13 / RFU, GNAQ / Fold change vs veh, GNAQ / RFU, CDK5R1 / Fold change vs veh, CDK5R1 / RFU, ZRANB3 / Fold change vs veh, ZRANB3 / RFU, CUL4A / Fold change vs veh, CUL4A / RFU, CCNY / Fold change vs veh, CCNY / RFU, UFL1 / Fold change vs veh, UFL1 / RFU, COG3 / Fold change vs veh, COG3 / RFU, DIAPH2 / Fold change vs veh, DIAPH2 / RFU, SKA2 / Fold change vs veh, SKA2 / RFU, AFF3 / Fold change vs veh, AFF3 / RFU, LMF1 / Fold change vs veh, LMF1 / RFU, IPO11 / Fold change vs veh, IPO11 / RFU, DFFB / Fold change vs veh, DFFB / RFU, FOXP1 / Fold change vs veh, FOXP1 / RFU, CARD8 / Fold change vs veh, CARD8 / RFU, STRN3 / Fold change vs veh, STRN3 / RFU, ADK / Fold change vs veh, ADK / RFU, RASSF2 / Fold change vs veh, RASSF2 / RFU, WIPF1 / Fold change vs veh, WIPF1 / RFU, LARP1B / Fold change vs veh, LARP1B / RFU, RASA1 / Fold change vs veh, RASA1 / RFU, RB1 / Fold change vs veh, RB1 / RFU, PPFIA1 / Fold change vs veh, PPFIA1 / RFU, MAT2A / Fold change vs veh, MAT2A / RFU, CCT5 / Fold change vs veh, CCT5 / RFU, WDR92 / Fold change vs veh, WDR92 / RFU, CUX1 / Fold change vs veh, CUX1 / RFU, TTC7A / Fold change vs veh, TTC7A / RFU, TMEM135 / Fold change vs veh, TMEM135 / RFU, DEPTOR / Fold change vs veh, DEPTOR / RFU, CPM / Fold change vs veh, CPM / RFU, DNAJB6 / Fold change vs veh, DNAJB6 / RFU, CACNA2D3 / Fold change vs veh, CACNA2D3 / RFU, DTX4 / Fold change vs veh, DTX4 / RFU, TFCP2 / Fold change vs veh, TFCP2 / RFU, GMCL1 /// GMCL1P1 / Fold change vs veh, GMCL1 /// GMCL1P1 / RFU, AEBP2 / Fold change vs veh, AEBP2 / RFU, SNHG1 /// SNORD22 /// SNORD25 /// SNORD26 /// SNORD27 /// SNORD28 /// SNORD29 /// SNORD31 / Fold change vs veh, SNHG1 /// SNORD22 /// SNORD25 /// SNORD26 /// SNORD27 /// SNORD28 /// SNORD29 /// SNORD31 / Fold change (Aza/veh), C12orf56 (ProbeSet 11735607_a_at) / Fold change (ACY-1035/veh), C12orf56 (ProbeSet 11735607_a_at) / Fold change (Aza/veh), FGFR1OP (ProbeSet 11751329_s_at) / Fold change (ACY-1035/veh), FGFR1OP (ProbeSet 11751329_s_at) / Fold change (Aza/veh), VPS36 (ProbeSet 11739960_a_at) / Fold change (ACY-1035/veh), VPS36 (ProbeSet 11739960_a_at) / RFU SYPL1 (11715823_x_at) / Fold change /veh SYPL1 (11715823_x_at) / RFU IGFBP7 (11715501_s_at) / Fold change /veh IGFBP7 (11715501_s_at) / RFU REEP3 (11722064_at) / Fold change /veh REEP3 (11722064_at) / RFU IGLL1 (11728026_x_at) / Fold change /veh IGLL1 (11728026_x_at): dose or concentration left out as unconfirmed
Details: ProbeSet 11752001_a_at; LIST D

Nc1ccc(-c2cccs2)cc1NC(=O)c1ccc2c(c1)cc(C1CC1)n2CCN1CCOCC1 [ACY-1035]
Fold change vs veh, CUL4A: 0.87
